Body weight and Total cholesterol data for eleven compounds are collected here from ChEMBL document CHEMBL1136150, “Hypocholesterolemic activity of hesperetin derivatives” (2003).

What all share (assay type): functional
The species named for assay [1] is Mus musculus. As to the kind of experiment: Body weight of the high cholesterol-fed mice after 0 day.
The species named for assay [2] is Mus musculus. As to the kind of experiment: Body weight of the high cholesterol-fed mice after 10 day.
For assay [3], the species on record is Mus musculus. As to the kind of experiment: Effect on plasma total cholesterol in high cholesterol-fed mice after 0 day.
For assay [4], the species on record is Mus musculus. Description: Effect on plasma total cholesterol in high cholesterol-fed mice after 10 day.

On to `CCCCCCCCCCCCCCCCOc1cc(O)c2c(c1)OC(c1ccc(OC)c(O)c1)CC2=O` (configuration not stated), for which the Body weight in the assay filed under Mus musculus [1] is reported as 22.5 g; in the assay listed under Mus musculus [2], 23 g. The Total cholesterol came to 93 mg/dL in the assay listed under Mus musculus [3] and 202 mg/dL in the assay listed under Mus musculus [4].

For `CCCCCCCCCCCCCCCC(=O)Oc1cc(O)c2c(c1)OC(c1ccc(OC)c(O)c1)CC2=O` (configuration not stated), the Body weight in the assay listed under Mus musculus [1] stood at 21.7 g; in the assay filed under Mus musculus [2], 23.4 g. Also, the Total cholesterol in the assay filed under Mus musculus [3] came out at 97 mg/dL; in the assay filed under Mus musculus [4], 209 mg/dL.

Regarding `CCCCCCCCCCCC(=O)Oc1cc(O)c2c(c1)OC(c1ccc(OC)c(O)c1)CC2=O` (configuration not stated), the Body weight in the assay filed under Mus musculus [1] and in the assay listed under Mus musculus [2] was 22.4 g each time. Further, the Total cholesterol came to 95 mg/dL in the assay listed under Mus musculus [3] and 192 mg/dL in the assay filed under Mus musculus [4].

On to `COc1ccc(C2CC(=O)c3c(O)cc(OC(C)=O)cc3O2)cc1O` (configuration not stated), for which the results for the Body weight in the assay listed under Mus musculus [1] and in the assay filed under Mus musculus [2] were 23.4 g and 23.7 g, respectively. Further, the figures for the Total cholesterol in the assay listed under Mus musculus [3] and in the assay filed under Mus musculus [4] were 96 mg/dL and 220 mg/dL, respectively.

`CCOc1cc(O)c2c(c1)OC(c1ccc(OC)c(O)c1)CC2=O` (configuration not stated): the results for the Body weight in the assay filed under Mus musculus [1] and in the assay listed under Mus musculus [2] were 21.9 g and 22.5 g, respectively. Further, the results for the Total cholesterol in the assay filed under Mus musculus [3] and in the assay filed under Mus musculus [4] were 102 mg/dL and 218 mg/dL, respectively.

Turning to `CCCCCCCCCCCCCCCCCCOc1cc(O)c2c(c1)OC(c1ccc(OC)c(O)c1)CC2=O` (configuration not stated), the Body weight in the assay listed under Mus musculus [1] is given as 23.1 g; in the assay filed under Mus musculus [2] it was 24.4 g. For the same compound, the figures for the Total cholesterol in the assay listed under Mus musculus [3] and in the assay listed under Mus musculus [4] were 101 mg/dL and 208 mg/dL, respectively.

Consider `CCCCCCCCCCCCOc1cc(O)c2c(c1)OC(c1ccc(OC)c(O)c1)CC2=O` (configuration not stated), for which the Body weight in the assay listed under Mus musculus [1] was 22 g; in the assay listed under Mus musculus [2], 22.4 g. For the same compound, the Total cholesterol in the assay filed under Mus musculus [3] was determined as 95 mg/dL; in the assay listed under Mus musculus [4], 189 mg/dL.

For the compound `COc1ccc([C@@H]2CC(=O)c3c(O)cc(O)cc3O2)cc1O` [HESPERETIN], the Body weight was found to be 25.4 g in the assay filed under Mus musculus [1] and 25.6 g in the assay listed under Mus musculus [2]. The Total cholesterol in the assay listed under Mus musculus [3] amounted to 103 mg/dL; in the assay filed under Mus musculus [4], 216 mg/dL.

For `CCCCCCCCCCCCCCCCCC(=O)Oc1cc(O)c2c(c1)OC(c1ccc(OC)c(O)c1)CC2=O` (configuration not stated), the values for the Body weight in the assay filed under Mus musculus [1] and in the assay filed under Mus musculus [2] were 22.3 g and 23.7 g, respectively. The Total cholesterol came to 95 mg/dL in the assay listed under Mus musculus [3] and 214 mg/dL in the assay filed under Mus musculus [4].

`CCCCCCCC/C=C\CCCCCCCC(=O)Oc1cc(O)c2c(c1)OC(c1ccc(OC)c(O)c1)CC2=O` (configuration not stated): the Body weight in the assay listed under Mus musculus [1] was found to be 22.3 g; in the assay listed under Mus musculus [2], 23.8 g.

With `CCCCCCCC/C=C\CCCCCCCCOc1cc(O)c2c(c1)OC(c1ccc(OC)c(O)c1)CC2=O` (configuration not stated), the Body weight in the assay listed under Mus musculus [1] is listed as 23.4 g; in the assay listed under Mus musculus [2], 23.7 g. The Total cholesterol was 96 mg/dL in the assay listed under Mus musculus [3] and 192 mg/dL in the assay filed under Mus musculus [4].
